Test [1] concerns the target T1, NRP-1 (Homo sapiens, UniProt O14786). Nature of the test: NRP-1 binding assay: inhibition of (bt)-VEGF-A165 binding to immobilized NRP-1, chemiluminescent detection. As to the method: More precisely, the inventors have shown that the compounds of formula (I) disclosed herein bind to NRP-1 at the nanomolar level whereas the most efficient known inhibitors to date bind to NRP-1 at the micromolar level.
The flat bottom surface of a 96-well plate was coated with 100 μL (200 ng/well) recombinant human NRP-1 and incubated overnight at 4° C. Non-specific binding was blocked by the incubation with 0.5% BSA in PBS. 50 μL of peptide dissolved in PBS in range concentrations and 50 μL (400 ng/mL) of human (bt)-VEGF-A165 in PBS containing 4 μg/mL of heparin were added respectively. After 2 h incubation at room temperature the plate was washed and treated with streptavidin-horseradish peroxidase conjugate in PBS (1:8000). Chemiluminescence was quantified immediately after addition of 100 μL Chemiluminescent substrate. In a positive control only (bt)-VEGF-A165 was present in wells, while, in negative control, wells were not coated by NRP-1. Percentages of inhibition were calculated by the following formula: 100%−[[(S−[…])/(P−NS)]·100%] where S is the signal intensity measured, NS is the signal measured in negative control, and P is the signal measured in positive control.
Selected active branched peptides were tested again using a more sensitive method with chemiluminescent detection. Moreover, some modified compounds were also examined. The IC50 for selected Lys(hArg)-X-X-Arg peptides was between 2-21 μM (Puszko A. K. at al. Neuropilin-1 peptide-like ligands with proline mimetics, tested using the improved chemiluminescence affinity detection method. MedChemComm, 2019, Vol. 10: 332-340).

Test [2] deals with T1, NRP-1. The following applies: comparative branched peptides without cysteine; colorimetric method; cited from earlier work.
The target in test [3] is T1, NRP-1. The following applies: further comparative branched peptides without cysteine; chemiluminescent detection (Puszko et al. 2019); cited from earlier work.
[4] abbreviates: peptides of formula (I), chemiluminescence binding assay, read-out: IC50.

Like-named read-outs stand apart in the source and are kept apart here. Where a SMILES comes first, the peptide text is derived from it.

T1 sequence (O14786 22-923): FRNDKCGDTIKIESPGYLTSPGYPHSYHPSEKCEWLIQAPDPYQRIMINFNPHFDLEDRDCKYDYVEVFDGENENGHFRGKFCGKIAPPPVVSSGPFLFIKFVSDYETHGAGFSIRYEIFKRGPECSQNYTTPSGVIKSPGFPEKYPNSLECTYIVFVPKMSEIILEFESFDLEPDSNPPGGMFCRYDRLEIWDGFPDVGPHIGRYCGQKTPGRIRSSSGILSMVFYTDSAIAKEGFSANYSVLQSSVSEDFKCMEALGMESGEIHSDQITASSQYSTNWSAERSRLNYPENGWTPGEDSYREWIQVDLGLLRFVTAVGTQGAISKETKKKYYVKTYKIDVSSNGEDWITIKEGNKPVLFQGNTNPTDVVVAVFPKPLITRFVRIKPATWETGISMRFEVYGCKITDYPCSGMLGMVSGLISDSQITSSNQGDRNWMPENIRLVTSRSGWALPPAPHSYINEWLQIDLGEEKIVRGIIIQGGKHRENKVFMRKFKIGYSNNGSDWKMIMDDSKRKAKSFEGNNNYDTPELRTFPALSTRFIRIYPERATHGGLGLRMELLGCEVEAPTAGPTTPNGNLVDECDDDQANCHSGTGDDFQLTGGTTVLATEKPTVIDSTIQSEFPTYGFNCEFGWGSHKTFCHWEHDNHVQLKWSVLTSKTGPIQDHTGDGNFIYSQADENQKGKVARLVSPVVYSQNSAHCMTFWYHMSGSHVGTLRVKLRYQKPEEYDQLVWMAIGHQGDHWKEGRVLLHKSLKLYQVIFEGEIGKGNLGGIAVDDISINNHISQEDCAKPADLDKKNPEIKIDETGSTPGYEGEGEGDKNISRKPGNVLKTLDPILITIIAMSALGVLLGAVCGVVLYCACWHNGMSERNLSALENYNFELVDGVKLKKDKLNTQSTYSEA

As a reminder, the IC50 is the concentration that gives 50% inhibition. `N=C(N)NCCCC[C@H](N)C(=O)NCCCC[C@H](NC(=O)[C@@H](N)CS)C(=O)N[C@@H](CCN)C(=O)N1C2CCCCC2C[C@H]1C(=O)N[C@@H](CCCNC(=N)N)C(=O)O` (stereo partly drawn) [H-Cys-Lys(hArg)-Dab-Oic-Arg-OH] (HELM PEPTIDE1{C.K.[Dab].[O=C([C@@H]1CC2CCCCC2N1[*:1])[*:2]].R}|PEPTIDE2{[N=C(N)NCCCC[C@H](N)C(=O)[*:2]]}$PEPTIDE1,PEPTIDE2,2:R3-1:R2$$$V2.0): the IC50 at NRP-1 [1] (setting [4]) is 0.05 µM. The same measure, in the same setting: for `N=C(N)NCCCC[C@H](N)C(=O)NCCCC[C@H](NC(=O)[C@@H](N)CS)C(=O)N[C@@H](CCN)C(=O)N1CC=C[C@H]1C(=O)N[C@@H](CCCNC(=N)N)C(=O)O` [H-Cys-Lys(hArg)-Dab-ΔPro-Arg-OH] (HELM PEPTIDE1{C.K.[Dab].[O=C([C@@H]1C=CCN1[*:1])[*:2]].R}|PEPTIDE2{[N=C(N)NCCCC[C@H](N)C(=O)[*:2]]}$PEPTIDE1,PEPTIDE2,2:R3-1:R2$$$V2.0) the value was 0.07 µM; for `N=C(N)NCCCC[C@H](NC(=O)[C@@H](N)CS)C(=O)NCCCC[C@H](N)C(=O)N[C@@H](CCN)C(=O)N1C2CCCCC2C[C@H]1C(=O)N[C@@H](CCCNC(=N)N)C(=O)O` (stereo partly drawn) [H-Lys(Cys-hArg)-Dab-Oic-Arg-OH] (HELM PEPTIDE1{K.[Dab].[O=C([C@@H]1CC2CCCCC2N1[*:1])[*:2]].R}|PEPTIDE2{C.[N=C(N)NCCCC[C@H](N[*:1])C(=O)[*:2]]}$PEPTIDE1,PEPTIDE2,1:R3-2:R2$$$V2.0), 0.04 µM. For `N=C(N)NCCCC[C@H](NC(=O)[C@@H](N)CS)C(=O)NCCCC[C@H](N)C(=O)N[C@@H](CCN)C(=O)N1CC=C[C@H]1C(=O)N[C@@H](CCCNC(=N)N)C(=O)O` [H-Lys(Cys-hArg)-Dab-ΔPro-Arg-OH] (HELM PEPTIDE1{K.[Dab].[O=C([C@@H]1C=CCN1[*:1])[*:2]].R}|PEPTIDE2{C.[N=C(N)NCCCC[C@H](N[*:1])C(=O)[*:2]]}$PEPTIDE1,PEPTIDE2,1:R3-2:R2$$$V2.0), the 50% inhibitory concentration (IC50) on NRP-1 [1] (setting [4]) is 0.06 µM. Turning to `N=C(N)NCCCC[C@H](N)C(=O)NCCCC[C@H](N)C(=O)N[C@@H](CCN)C(=O)N1CCC[C@H]1C(=O)N[C@@H](CCCNC(=N)N)C(=O)O` [H-Lys(hArg)-Dab-Pro-Arg-OH] (HELM PEPTIDE1{K.[Dab].P.R}|PEPTIDE2{[N=C(N)NCCCC[C@H](N)C(=O)[*:2]]}$PEPTIDE1,PEPTIDE2,1:R3-1:R2$$$V2.0), the IC50 on NRP-1 [2] is 200 nM.

On to `N=C(N)NCCCC[C@H](N)C(=O)NCCCC[C@H](N)C(=O)N[C@@H](CN)C(=O)N1CCC[C@H]1C(=O)N[C@@H](CCCNC(=N)N)C(=O)O` [H-Lys(hArg)-Dap-Pro-Arg-OH] (HELM PEPTIDE1{K.[NC[C@H](N[*:1])C(=O)[*:2]].P.R}|PEPTIDE2{[N=C(N)NCCCC[C@H](N)C(=O)[*:2]]}$PEPTIDE1,PEPTIDE2,1:R3-1:R2$$$V2.0), for which the IC50 on NRP-1 [2] was 200 nM. For the compound `N=C(N)NCCCC[C@H](N)C(=O)NCCCC[C@H](N)C(=O)N1CCC[C@H]1C(=O)N[C@@H](CCN)C(=O)N[C@@H](CCCNC(=N)N)C(=O)O` [H-Lys(hArg)-Pro-Dab-Arg-OH] (HELM PEPTIDE1{K.P.[Dab].R}|PEPTIDE2{[N=C(N)NCCCC[C@H](N)C(=O)[*:2]]}$PEPTIDE1,PEPTIDE2,1:R3-1:R2$$$V2.0), on NRP-1 [2], the IC50 is 200 nM. In the case of `N=C(N)NCCCC[C@H](N)C(=O)NCCCC[C@H](N)C(=O)N1CCC[C@H]1C(=O)N1CCC[C@H]1C(=O)N[C@@H](CCCNC(=N)N)C(=O)O` [H-Lys(hArg)-Pro-Pro-Arg-OH] (HELM PEPTIDE1{K.P.P.R}|PEPTIDE2{[N=C(N)NCCCC[C@H](N)C(=O)[*:2]]}$PEPTIDE1,PEPTIDE2,1:R3-1:R2$$$V2.0), the IC50 at NRP-1 [2] is 1000 nM. With `C[C@@H](O)[C@H](N)C(=O)N[C@@H](CCCCN)C(=O)N1CCC[C@H]1C(=O)N[C@@H](CCCNC(=N)N)C(=O)O` [TKPR] (H-TKPR-OH; N-terminus and C-terminus assumed), on NRP-1 [1] (parent tetrapeptide without N-terminal Cys, VEGF-A165/NRP-1 binding, read-out: IC50 [μM] without Cys), the IC50 is above 100 µM.

Take H-Lys(hArg)-Dab-Oic-Arg-OH: on NRP-1 [3], the IC50 is 2300 nM. Take H-Lys(hArg)-Oic-Oic-Arg-OH: the IC50 on NRP-1 [3] was 7200 nM.

(Values after patent US12590122B2, “NRP-1 binding inhibitory peptides and uses thereof” (priority 2019, dated 2026).)
